Earlier results as cited in US20230346708A1, “STABLE FORMULATIONS OF ANTI-CANCER PEPTIDES” (Oncolyze, Inc., priority 2020, published 2023).

Test system: cancer cells
Details: cancer cells vs normal cells; general statement, no data shown

## ETFSDLWKLLKKWKMRRNQFWVKVQRG [PNC-28, p53 aa17-26-MRP anti-cancer peptide]
  Tumor cell necrosis: induce tumor cell necrosis of cancer cells, but not normal cells
